Bounds are passed on as bounds.

Assay [1] concerns the target T1, RNR (RNR1:RNR2 1:1) (Homo sapiens, UniProt P23921).
T1 sequence (P23921 1-792): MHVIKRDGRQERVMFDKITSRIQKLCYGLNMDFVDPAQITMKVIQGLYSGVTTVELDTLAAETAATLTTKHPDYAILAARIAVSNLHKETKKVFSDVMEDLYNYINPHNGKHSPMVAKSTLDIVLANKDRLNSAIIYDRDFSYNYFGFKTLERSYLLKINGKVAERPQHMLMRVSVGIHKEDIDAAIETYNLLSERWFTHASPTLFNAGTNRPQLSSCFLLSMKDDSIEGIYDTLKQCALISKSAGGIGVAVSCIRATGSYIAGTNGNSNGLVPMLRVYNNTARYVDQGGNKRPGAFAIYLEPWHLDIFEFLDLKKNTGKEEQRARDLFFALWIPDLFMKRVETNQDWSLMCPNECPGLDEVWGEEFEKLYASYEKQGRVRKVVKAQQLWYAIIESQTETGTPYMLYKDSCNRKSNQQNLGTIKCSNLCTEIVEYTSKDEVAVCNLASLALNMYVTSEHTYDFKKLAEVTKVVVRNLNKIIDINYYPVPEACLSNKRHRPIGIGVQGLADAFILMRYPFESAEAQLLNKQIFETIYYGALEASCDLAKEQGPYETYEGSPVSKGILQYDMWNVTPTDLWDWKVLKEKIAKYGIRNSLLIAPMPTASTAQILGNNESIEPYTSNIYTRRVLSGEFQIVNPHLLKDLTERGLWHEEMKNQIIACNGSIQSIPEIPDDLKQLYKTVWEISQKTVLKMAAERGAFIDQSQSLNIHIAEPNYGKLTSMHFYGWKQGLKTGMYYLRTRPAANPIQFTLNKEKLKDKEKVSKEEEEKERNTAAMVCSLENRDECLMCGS
Nature of the assay: RNR enzyme activity, rapid-fire mass spectrometry (RF/MS) assay. Format: biochemical. Particulars: [RNR] 50 nM, 1:1 RNR1:RNR2; CDP 5 μM; ATP 1 mM; 37° C., 45 min; compounds screened up to 50 μM. In outline: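 Human RNR (50 nM final, RNR1:RNR2 1:1) pre-incubated 15 min at room temperature, then reacted 45 min at 37 °C with 5 μM CDP and 1 mM ATP, no NADPH. Reaction quenched with 6% HCOOH; product quantified by rapid-fire mass spectrometry.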

The subject of assay [2] is pCHK1 (S345) in Colo320 DM cells. The assay is described as follows: Alphalisa assay, detection of pCHK1 (S345) in Colo320 DM cells. Format: cell-based, human. The note with it: Homo sapiens, COLO 320DM, compound overnight (approximately 16 hours). In outline:
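Colo320 DM cells plated overnight, then exposed to compound for about 16 h at 37 °C (DMSO <0.5%). Cells lysed and phospho-CHK1 (S345) quantified by AlphaLisa SureFire with sequential 60 min acceptor and donor incubations at room temperature.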
In general terms: In Alpha technology, singlet oxygen from a donor bead excites a nearby acceptor bead.

The term IC50 denotes the point on the concentration scale where inhibition reaches its midpoint. With `Cc1ccc(F)c([C@@H](C)[C@@H](c2n[nH]c(=O)o2)N2CN(C)c3cc(Cl)cc(C(C)O)c3S2(=O)=O)c1C` (stereo partly drawn) [Example 68, 5-((1S,2R)-1-(6-chloro-8-(1-hydroxyethyl)-4-methyl-1,1-dioxido-3,4-dihydro-2H-benzo[e][1,2,4]thiadiazin-2-yl)-2-(6-fluoro-2,3-dimethylphenyl)propyl)-1,3,4-oxadiazol-2 (3H)-one], the half-inhibitory concentration (IC50) was 20 to 100 nM in assay [1] and at most 1000 nM in assay [2].
For `COCc1cc2c(cc1Cl)OCCN([C@H](c1n[nH]c(=O)o1)[C@H](C)c1c(F)ccc(C)c1C)S2(=O)=O` [Example 69, 5-((1S,2R)-1-(7-chloro-8-(methoxymethyl)-1,1-dioxido-3,4-dihydro-2H-benzo[b][,4,5]oxathiazepin-2-yl)-2-(6-fluoro-2,3-dimethylphenyl)propyl)-1,3,4-oxadiazol-2 (3H)-one] the same measures were 1000 to 10000 nM and above 50000 nM.
For `COCc1cc(Cl)cc2c1S(=O)(=O)N([C@H](c1n[nH]c(=O)o1)[C@H](C)c1c(F)ccc(C)c1C)CN2C` [Example 70, 5-((1S,2R)-1-(6-chloro-8-(methoxymethyl)-4-methyl-1,1-dioxido-3,4-dihydro-2H-benzo[e][1,2,4]thiadiazin-2-yl)-2-(6-fluoro-2,3-dimethylphenyl)propyl)-1,3,4-oxadiazol-2 (3H)-one] the same measures were 20 to 100 nM and 1000 to 5000 nM.
For `COCc1cc(Cl)cc2c1S(=O)(=O)N([C@H](c1n[nH]c(=O)o1)[C@H](C)c1c(F)ccc(C)c1C)CCO2` [Example 71, 5-((1S,2R)-1-(7-chloro-9-(methoxymethyl)-1,1-dioxido-3,4-dihydro-2H-benzo[b][1,4,5]oxathiazepin-2-yl)-2-(6-fluoro-2,3-dimethylphenyl)propyl)-1,3,4-oxadiazol-2 (3H)-one] the same measures were 100 to 1000 nM and at most 1000 nM.
With `Cc1ccc(F)c([C@@H](C)[C@@H](c2n[nH]c(=O)o2)N2CN(C)c3cc(Cl)cc(CO)c3S2(=O)=O)c1C` [Example 72, 5-((1S,2R)-1-(6-chloro-8-(hydroxymethyl)-4-methyl-1,1-dioxido-3,4-dihydro-2H-benzo[e][1,2,4]thiadiazin-2-yl)-2-(6-fluoro-2,3-dimethylphenyl)propyl)-1,3,4-oxadiazol-2 (3H)-one], the IC50 in assay [1] was below 20 nM; in assay [2], at most 1000 nM.
For `Cc1ccc(F)c([C@@H](C)[C@@H](c2n[nH]c(=O)o2)N2CN(CCO)c3nc(Cl)ccc3S2(=O)=O)c1C` [Example 73, 5-((1S,2R)-1-(6-chloro-4-(2-hydroxyethyl)-1,1-dioxido-3,4-dihydro-2H-pyrido[2,3-e][1,2,4]thiadiazin-2-yl)-2-(6-fluoro-2,3-dimethylphenyl)propyl)-1,3,4-oxadiazol-2 (3H)-one] the same measures were below 20 nM and at most 1000 nM.
For `Cc1ccc(F)c([C@@H](C)[C@@H](c2n[nH]c(=O)o2)N2CN([C@@H]3CCN(C)C3)c3cc(Cl)ccc3S2(=O)=O)c1C` [Example 74, 5-((1S,2R)-1-(6-chloro-4-((R)-1-methylpyrrolidin-3-yl)-1,1-dioxido-3,4-dihydro-2H-benzo[e][1,2,4]thiadiazin-2-yl)-2-(6-fluoro-2,3-dimethylphenyl)propyl)-1,3,4-oxadiazol-2 (3H)-one] the same measures were below 20 nM and at most 1000 nM.
For `Cc1ccc(F)c([C@@H](C)[C@@H](c2n[nH]c(=O)o2)N2CN(C)c3cc(Cl)cc(CBr)c3S2(=O)=O)c1C` [Example 76, 5-((1S,2R)-1 (8-(bromomethyl)-6-chloro-4-methyl-1,1-dioxido-3,4-dihydro-2H-benzo[e][1,2,4]thiadiazin-2-yl)-2-(6-fluoro-2,3-dimethylphenyl)propyl)-1,3,4-oxadiazol-2 (3H)-one] the same measures were below 20 nM and 1000 to 5000 nM.
With `Cc1ccc(F)c([C@@H](C)[C@@H](c2n[nH]c(=O)o2)N2CCOc3cc(Cl)c(CO)cc3S2(=O)=O)c1C` [Example 77, 5-((1S,2R)-1-(7-chloro-8-(hydroxymethyl)-1,1-dioxido-3,4-dihydro-2H-benzo[b][1,4,5]oxathiazepin-2-yl)-2-(6-fluoro-2,3-dimethylphenyl)propyl)-1,3,4-oxadiazol-2 (3H)-one], the IC50 in assay [1] was 100 to 1000 nM; in assay [2], above 50000 nM.
For `Cc1ccc(F)c([C@@H](C)[C@@H](c2n[nH]c(=O)o2)N2CCOc3cc(Cl)cc(CO)c3S2(=O)=O)c1C` [Example 78, 5-((1S,2R)-1-(7-chloro-9-(hydroxymethyl)-1,1-dioxido-3,4-dihydro-2H-benzo[b][1,4,5]oxathiazepin-2-yl)-2-(6-fluoro-2,3-dimethylphenyl)propyl)-1,3,4-oxadiazol-2 (3H)-one], the results for the IC50 in assay [1] and in assay [2] were below 20 nM and at most 1000 nM, respectively.
For `Cc1ccc(F)c([C@@H](C)[C@@H](c2n[nH]c(=O)o2)N2CN(CCCO)c3cc(Cl)ccc3S2(=O)=O)c1C` [Example 79, 5-((1S,2R)-1-(6-chloro-4-(3-hydroxypropyl)-1,1-dioxido-3,4-dihydro-2H-benzo[e][1,2,4]thiadiazin-2-yl)-2-(6-fluoro-2,3-dimethylphenyl)propyl)-1,3,4-oxadiazol-2 (3H)-one] the same measures were below 20 nM and at most 1000 nM.
For `Cc1ccc(F)c([C@@H](C)[C@@H](c2n[nH]c(=O)o2)N2CN(CCN3CCCC3)c3cc(Cl)ccc3S2(=O)=O)c1C` [Example 80, 5-((1S,2R)-1-(6-chloro-1,1-dioxido-4-(2-(pyrrolidin-1-yl)ethyl)-3,4-dihydro-2H-benzo[e][1,2,4]thiadiazin-2-yl)-2-(6-fluoro-2,3-dimethylphenyl)propyl)-1,3,4-oxadiazol-2 (3H)-one] the same measures were below 20 nM and at most 1000 nM.
For `Cc1ccc(F)c([C@@H](C)[C@@H](c2n[nH]c(=O)o2)N2CN(CC(F)F)c3nc(Cl)ccc3S2(=O)=O)c1C` [Example 81, 5-[(1S,2R)-1-[6-chloro-4-(2,2-difluoroethyl)-1,1-dioxo-3H-pyrido[2,3-e][1,2,4]thiadiazin-2-yl]-2-(6-fluoro-2,3-dimethyl-phenyl)propyl]-3H-1,3,4-oxadiazol-2-one] the same measures were below 20 nM and at most 1000 nM.
On to `Cc1ccc(F)c([C@@H](C)[C@@H](c2n[nH]c(=O)o2)N2CN(CCCO)c3nc(Cl)ccc3S2(=O)=O)c1C` [Example 82, 5-[(1S,2R)-1-[6-chloro-4-(3-hydroxypropyl)-1,1-dioxo-3H-pyrido[2,3-e][1,2,4]thiadiazin-2-yl]-2-(6-fluoro-2,3-dimethyl-phenyl)propyl]-3H-1,3,4-oxadiazol-2-one], for which the figures for the IC50 in assay [1] and in assay [2] were below 20 nM and at most 1000 nM, respectively.
For `Cc1ccc(F)c([C@@H](C)[C@@H](c2n[nH]c(=O)o2)N2CN(CC3COC3)c3cc(Cl)ccc3S2(=O)=O)c1C` [Example 83, 5-((1S,2R)-1-(6-chloro-4-(oxetan-3-ylmethyl)-1,1-dioxido-3,4-dihydro-2H-benzo[e][1,2,4]thiadiazin-2-yl)-2-(6-fluoro-2,3-dimethylphenyl)propyl)-1,3,4-oxadiazol-2 (3H)-one] the same measures were below 20 nM and at most 1000 nM.
For `Cc1ccc(F)c([C@@H](C)[C@@H](c2n[nH]c(=O)o2)N2CN(CCN3CCOCC3)c3cc(Cl)ccc3S2(=O)=O)c1C` [Example 84, 5-((1S,2R)-1-(6-chloro-4-(2-morpholinoethyl)-1,1-dioxido-3,4-dihydro-2H-benzo[e][1,2,4]thiadiazin-2-yl)-2-(6-fluoro-2,3-dimethylphenyl)propyl)-1,3,4-oxadiazol-2 (3H)-one] the same measures were below 20 nM and at most 1000 nM.
For `Cc1ccc(F)c([C@@H](C)[C@@H](c2n[nH]c(=O)o2)N2CN([C@H]3CCN(C)C3)c3cc(Cl)ccc3S2(=O)=O)c1C` [Example 86, 5-((1S,2R)-1-(6-chloro-4-((S)-1-methylpyrrolidin-3-yl)-1,1-dioxido-3,4-dihydro-2H-benzo[e][1,2,4]thiadiazin-2-yl)-2-(6-fluoro-2,3-dimethylphenyl)propyl)-1,3,4-oxadiazol-2 (3H)-one] the same measures were below 20 nM and 1000 to 5000 nM.
